{"source": "patent US10610564B2", "about": "“IRGM and precision autophagy controls for antimicrobial and inflammatory disease states and methods of detection of autophagy” (STC.UNM, priority 2015, dated 2020)", "key": {"AMPK": {"test_system": "AMPK", "details": "statement in figure legend; compound C used at 20, 40, 80, 160 μM; cited from earlier work"}, "dimerized IRF3": {"test_system": "dimerized IRF3", "assay": "IRF3 dimerization assay (native PAGE) in THP-1 cells", "format": "cell-based, human", "details": "HT-DNA and IFN-γ, with bafilomycin", "description": "(A) Confocal microscopy of HeLa cells co-expressing mCherry-TRIM21, Flag-IRF3, and GFP-LC3B in the presence of bafilomycin A1. White outline, cell boundary. Arrows indicate the colocalization. (B) Confocal microscopy of HEK293 cells co-expressing mCherry-TRIM21, Flag-IRF3, and GFP-ULK1. (C) Co-immunoprecipitation analysis of IRF3-ULK1 complexes in the presence and absence of TRIM21. Lysates from HEK293 cells transiently expressing Myc-ULK1, Flag-IRF3, and either […] or GFP were immunoprecipitated with anti-Myc, and immunoblots were probed as indicated. (D) Levels of dimerized IRF3 were assessed by native PAGE from THP-1 cells subjected to TRIM21 or control knockdown, and stimulated for 12 h by herring testis DNA (HT-DNA) transfected into the cells in the presence of 200 U/mL IFN-γ. […]\nDetection of IRF3 dimerization was performed by native polyacrylamide gel electrophoresis (PAGE) as previously described (Takahasi et al., 2003). Quantitative RT-PCR was performed as previously described (Kimura et al., 2013) using the following primer sets: ULK1, ([…], […]); BECN1, ([…], […]); ACTIN, ([…], […]); TRIM1, ([…], […]); TRIM5, ([…], […]); TRIM8, ([…], […]); TRIM16, ([…], […]); TRIM20, ([…], […]); TRIM21, ([…], […]); TRIM22, ([…], […]); TRIM28, ([…], […]); TRIM56, ([…], […]); and TRIM65, ([…], […]). […]"}, "NLRP3": {"test_system": "NLRP3", "assay": "NLRP3 levels by immunoblot in THP-1 cells", "format": "cell-based, human", "details": "THP-1 cells treated with IFN-γ and LPS, with or without bafilomycin A1", "experimental": "(A) Levels of NLRP3 were determine in lysates from THP-1 cells subjected to TRIM20 or Scr siRNA were activated with 1,000 U/mL IFN-γ for 3 h, and 2.5 μg/mL LPS for 2 h (for optimal TRIM20 expression; Supplementary FIG. 24B). RI, relative intensity. (B) Levels of NLRP3 were determined from THP-1 subjected to TRIM20 or control knockdown and treated or not with bafilomycin A1 (Baf A1). (C) The abundance of NLRP3 protein was determined from THP-1 cells subjected to TRIM20 or control knockdown and exposed to Escherichia coli strain LF82 and IFN-γ in the presence or absence of bafilomycin. (D) The abundance of NLRP3 protein was determined from primary human MDMs subjected to TRIM20 or control knockdown and exposed to LPS and IFN-γ in the presence or absence of bafilomycin. (E) Levels of NLRP3 were determined from THP-1 cells subjected to ULK1, Beclin 1, or Scr siRNA were treated with IFN-γ and LPS. (F-H) Levels of NLRP3 (F), NLRP1 (G), or pro-capsase 1 (H) were determined in cells expressing GFP or GFP-TRIM20 following autophagy induction (EBSS, 3 h) in the presence or absence of bafilomycin A1. […]\n(A) Co-immunoprecipitation analysis of deletion variants of TRIM20 (as GFP fusions; asterisks denote fusion products on the bottom blot) with NLRP3 in HEK293 cells. […] (E) THP-1 cells were treated with 1.0 μg/ml of LPS for 3 h, and levels of NLRP3 in lysate were determined by immunoblots. […]"}, "NOD2": {"test_system": "NOD2", "assay": "Western blot of NOD2 levels in HEK293T cells co-expressing GFP-IRGM and Flag-NOD2", "format": "cell-based", "details": "Bafilomycin A1 100 nM for 8 h", "experimental": "(A) Effects of IRGM expression on NOD2 levels in transfected HEK293T cells. Data, means±SE; *, p<0.05 (Student's unpaired t test). (B) Lysates of HEK293T cell co-expressing GFP or GFP-IRGM and Flag-NOD2, untreated/treated with Bafilomycin A1 (100 nM for 8 h) were subjected to Western blotting. (C) Lysates of cells co-expressing Flag-NOD2 and GFP, GFP-IRGM, or GFP-IRGM-K^mut were subjected to Western blotting. (D, E) Lysates from HEK293T cells co-expressing Myc-ULK1 and either GFP or increasing amounts of GFP-IRGM were subjected to Western blotting as in (D) with the relative abundance of Myc-ULK1 shown in (E). Blot was processed (dashed vertical line) to remove irrelevant lanes. (F) HEK293T cells transfected with plasmids encoding GFP, GFP-IRGM, or GFP-IRGM-K^mut and either Myc-ULK1 or Flag-Beclin 1 were lysed and subjected to Western blotting. Data from densitometric analyses of Western blots (B, C, E), means±SE, n=3*, p<0.05 (ANOVA). (G) Depiction of the role of IRGM ubiquitination in NOD2 degradation and ULK1 stabilization. See also FIG. 13."}, "[1]": {"test_system": "NLRP3, NLRP1, pro-caspase 1, TRIM20", "assay": "Levels of inflammasome components and GFP-TRIM20 in cells expressing GFP-TRIM20 after autophagy induction (EBSS)", "format": "cell-based", "details": "EBSS 3 h, with bafilomycin A1", "experimental": "(A) Levels of NLRP3 were determine in lysates from THP-1 cells subjected to TRIM20 or Scr siRNA were activated with 1,000 U/mL IFN-γ for 3 h, and 2.5 μg/mL LPS for 2 h (for optimal TRIM20 expression; Supplementary FIG. 24B). RI, relative intensity. (B) Levels of NLRP3 were determined from THP-1 subjected to TRIM20 or control knockdown and treated or not with bafilomycin A1 (Baf A1). (C) The abundance of NLRP3 protein was determined from THP-1 cells subjected to TRIM20 or control knockdown and exposed to Escherichia coli strain LF82 and IFN-γ in the presence or absence of bafilomycin. (D) The abundance of NLRP3 protein was determined from primary human MDMs subjected to TRIM20 or control knockdown and exposed to LPS and IFN-γ in the presence or absence of bafilomycin. (E) Levels of NLRP3 were determined from THP-1 cells subjected to ULK1, Beclin 1, or Scr siRNA were treated with IFN-γ and LPS. (F-H) Levels of NLRP3 (F), NLRP1 (G), or pro-capsase 1 (H) were determined in cells expressing GFP or GFP-TRIM20 following autophagy induction (EBSS, 3 h) in the presence or absence of bafilomycin A1. Data, means±SE, n≥3, *P<0.05, ^†P≥0.05 (ANOVA).\n(A) Co-immunoprecipitation analysis of deletion variants of TRIM20 (as GFP fusions; asterisks denote fusion products on the bottom blot) with NLRP3 in HEK293 cells. (B) THP-1 cells were treated with IFN-γ for 3 h, additionally treated with 2.5 μg/ml of LPS for indicated periods, and TRIM20 mRNA levels were determined by quantitative PCR. […] (C and D) Levels of NLRP3 were determined in lysates from THP-1 cells subjected to TRIM20 or Scr siRNA were (C) untreated either IFN-γ or LPS, or (D) LPS alone for 2 h. (E) THP-1 cells were treated with 1.0 μg/ml of LPS for 3 h, and levels of NLRP3 in lysate were determined by immunoblots. (F) Knockdown efficacies of ULK1 and Beclin 1 by siRNA were examined by quantitative RT-PCR. (G and H) Levels of GFP-TRIM20 were determined in cells co-expressing (G) with or (H) without NLRP3 following autophagy induction (EBSS, 3 h) in the presence or absence of bafilomycin A1. […]"}}}
{"smiles": "c1cc(-c2cnn3cc(-c4ccc(OCCN5CCCCC5)cc4)cnc23)ccn1", "note": "[Compound C]", "values": [{"measurement": "AMPK inhibition", "setting": "AMPK", "value": "potent inhibitor of AMPK"}]}
{"smiles": "CO/C1=C\\C(C)=C\\[C@@H](C)[C@@H](O)[C@@H](C)C/C(C)=C/C=C/[C@H](OC)[C@@H]([C@@H](C)[C@@H](O)[C@H](C)[C@@]2(O)C[C@@H](O)[C@H](C)[C@@H](C(C)C)O2)OC1=O", "note": "[bafilomycin A1]", "values": [{"measurement": "dimerized IRF3 degradation", "setting": "dimerized IRF3", "value": "protected dimerized IRF3 from degradation"}, {"measurement": "NLRP3 degradation", "setting": "NLRP3", "value": "protected NLRP3"}, {"measurement": "IRGM-promoted NOD2 degradation", "setting": "NOD2", "value": "partially blocked"}, {"measurement": "TRIM20 degradation in the presence of NLRP3", "setting": "[1]; GFP-TRIM20 co-expressed with NLRP3", "value": "protected"}, {"measurement": "degradation of pro-caspase 1 and NLRP1 co-expressed with TRIM20", "setting": "[1]; cells expressing GFP-TRIM20", "value": "inhabitable"}, {"measurement": "destabilizing effect of TRIM20 overexpression on NLRP3 levels", "setting": "[1]; cells expressing GFP-TRIM20", "value": "suppressed"}]}
